Data set [1] concerns the target T1, γ-secretase (Macaca fascicularis, UniProt Q8HXW5).
T1 construct: γ-secretase complex can be modulated in primates; from tissue; host or cells: living cynomolgus monkeys; Aβ read out in CSF and plasma
Kind of data set: Aβ levels in CSF and plasma of conscious cynomolgus monkeys after a single dose. Format: in vivo, cynomolgus monkeys (Macaca fascicularis). How it is done: The effects of drugs on CSF and plasma Aβ ratios in monkeys and plasma Aβ ratios in humans were analyzed by a two-way analysis of variance with a post hoc Bonferroni posttest (GraphPad Prism, La Jolla, CA, USA).
Aβ42, Aβ38 and total Aβ levels in CSF samples were measured. During the observation period, there was variation in Aβ levels in untreated animals (Fig. 2a–c) without a clear diurnal pattern, consistent with the reports from catheter studies in humans. Animals were then treated with drugs in subsequent weeks sequentially. Between each treatment, all animals were rested for 1 week to allow drug washout. […] In light of the CSF results, the effects of GSM-1 were mirrored in plasma. […] This was evident as early as 2 h following drug administration and plateaued starting at 4 h. GSM-1 reduced the ratio of Aβ42/Aβ40 up to 40 % at 6 h after dosing.
Cerebrospinal fluid (CSF) and plasma samples were collected at indicated time points and amyloid beta-peptide (Aβ) levels were measured. Levels of total Aβ (a), Aβ42 (b) and Aβ38 (c) were compared in CSF samples. […] The levels and ratios were normalized to baseline (time 0 or before drug dosing) and shown as percentages of baseline. Seven monkeys were used in the no-treatment group. […] Results are presented as mean ± SEM; *p < 0.05, **p < 0.001. GSM gamma-secretase modulator

The test system of data set [2] is γ-secretase. Kind of data set: GSM activity in vitro: Aβ42 and total Aβ ELISA of conditioned media of CHO cells expressing APP-WT or APP-V717F. Format: cell-based, Chinese hamster. Conditions: for ED50 (in vitro GSM activity): Fig. 1. An excerpt: Conditioned media were collected and Aβ42 and total Aβ levels were quantified by ELISA analyses. […] All experiments were repeated at least twice. Results are presented as mean ± range. GSM gamma-secretase modulator

Data set [3] deals with γ-secretase. On the set-up: method as in PMID 17962197. The settings on record: APP transgenic mice, cited from earlier work.
Data set [4] deals with T1, γ-secretase. Description: Aβ levels in CSF and plasma of conscious cynomolgus monkeys after a single dose. Format: in vivo, cynomolgus monkeys (Macaca fascicularis). Conditions: monkey CSF, 30 mg/kg oral.
Data set [5] in a line: Adverse events in the human study. Conditions: healthy humans, 800 mg IV single dose or placebo.
For data set [6] the following is noted: monkey, 100 mg/kg oral, first sampled time point, all but one animal.
A further data set is described as follows: in vivo. The settings on record: female, cynomolgus monkey, po, 100 mg/kg.
For data set [7] the following is noted: mild to moderate AD, 400 mg twice daily, 1 year; cited from earlier work.
In data set [8] the test system is γ-secretase. More on the design: method as in PMID 11700559, PMID 12897211. Conditions: Tg2576 mice, 50 mg/kg for 3 days; cited from earlier work.
A short description of another data set: clinical. Conditions: human.
Data set [9] in a line: Plasma drug concentration in mice treated with ibuprofen for 3 days (literature). In kind it is in vivo. The settings on record: Tg2576 (APP transgenic line), mouse, 50 mg/kg daily for 3 days, from 43 μM and ~5.5 % unbound, read-out: estimated unbound concentration in plasma.
On the set-up of data set [10]: method as in PMID 12897211. The settings on record: mice, 50 mg/kg daily for 3 days, 2 h after the last dose; cited from earlier work.
On the set-up of data set [11]: method as in PMID 17650315, PMID 20009055. The settings on record: late-phase human clinical trial; cited from earlier work.

Each structure is given as a SMILES string.

For `CC(C)CC[C@H](c1ccc(Cl)cc1)N1CC[C@@H](CC(=O)O)C[C@H]1c1ccc(C(F)(F)F)cc1` [GSM-1], on γ-secretase [1] (monkey CSF, 30 mg/kg oral), the “time of maximum reduction in CSF” value lay within 8 to 12 h. Moreover, at γ-secretase [1] (monkey CSF, 30 mg/kg oral single dose), the “effect on CSF total Aβ levels” value is “did not change”. Further, the “maximal increase in CSF Aβ38 levels” value at γ-secretase [1] (monkey CSF, 30 mg/kg oral single dose, 8 h postdosing) is listed as ~ 90%. Also, the “maximal reduction in CSF Aβ42 levels” value at γ-secretase [1] (monkey CSF, 30 mg/kg oral single dose, 12 h postdosing) is reported as ~ 32%. Also, at γ-secretase [1] (monkey CSF, 30 mg/kg oral, after 8 h, p < 0.05), the “maximal increase of the ratio of Aβ38 to total Aβ in CSF” value is given as 70%. At γ-secretase [1] (monkey CSF, single dose 30 mg/kg, baseline to postdosing), the “ratio of Aβ42 to total Aβ in CSF, relative to baseline” value came out at 65%. Moreover, the “reduction of the ratio of Aβ42/Aβ40 in plasma” value at γ-secretase [1] (monkey plasma, 30 mg/kg oral, 6 h after dosing) is listed as “up to 40%”. Also, the “time at which the decrease of plasma Aβ42/Aβ40 ratio was first evident” value at γ-secretase [1] (monkey plasma, 30 mg/kg oral, plateaued starting at 4 h) is 2 h. For the same compound, on γ-secretase [1] (monkey plasma, single dose 30 mg/kg, baseline to postdosing), the “ratio of Aβ42 to Aβ40 in plasma, relative to baseline” value is given as 60%. For the same compound, at γ-secretase [1] (monkey plasma, single dose, Fig. 2f), the “effect on ratio of Aβ42/Aβ40 in plasma” value was “markedly decreased”. Further, in the data set on γ-secretase [2] (CHO APP-WT or APP-V717F, 24 h, dose-dependent, p < 0.001), the “effect on ratio of Aβ42 to total Aβ” value is reported as “significantly reduced”. Also, the “concentration giving 50 % reduction of the ratio of Aβ42 to total Aβ” value in the data set on γ-secretase [2] (CHO cells expressing APP-WT or APP-V717F, 24 h incubation, ELISA) turned out to be 0.2 µM. In the data set on γ-secretase [2], the “ED50 (in vitro GSM activity)” value is reported as “approximately 200 nM”. Further, the “lowering of brain Aβ42” value in the data set with γ-secretase [3] (single dose 3 mg/kg) was 25%. For the same compound, the “reduction of brain Aβ42” value in the data set with γ-secretase [3] (single dose 30 mg/kg) is listed as 70%. Also, the “effect on Aβ38 levels” value with γ-secretase [3] (single dose) is recorded as “concomitantly increased”. The “CSF Aβ38 level (mean ± SD)” value at γ-secretase [4] (8 h postdosing, baseline 1033.3 ± 300.0) is given as 1954.8 ± 698.6 pg/mL. Also, on γ-secretase [4] (12 h postdosing, baseline 267.1 ± 60.0), the “CSF Aβ42 level (mean ± SD)” value is 183.5 ± 96.1 pg/mL.

As for `CC(C)Cc1ccc(C(C)C(=O)O)cc1` (centres unmarked) [ibuprofen], the “adverse events during the study period” value in [5] was “no adverse events were observed”. For the same compound, the “time of highest concentrations in plasma and CSF” value in [6] stood at 2 h. For the same compound, the AUC(0-t) in “in vivo” (CSF) came out at 36.4 ± 11.8 µM·h; in “in vivo” (plasma), 3740 ± 924 µM·h; in the data set “clinical” (both, in vivo, iv, 800 mg), 831 ± 156 µM·h. Besides, in data set [7], the clinical benefit entry is “no benefit”. The “ED50 (in vitro GSM activity)” value in the data set on γ-secretase [2] lay in the range of 250 to 500 µM. The “effect on Aβ40 levels (reduced or not)” value in the data set on γ-secretase [8] is listed as “not”. In addition, the “effect on Aβ42 levels” value in the data set on γ-secretase [8] is on record as “significantly reduced”. For the same compound, the “time of return of plasma levels to baseline” value in “clinical” (800 mg IV) is at most 8 h. For the same compound, the “time of highest plasma levels” value in the data set “clinical” (800 mg IV, first time sampled) came out at 1 h. In data set [9], the concentration at 3 days is around 2370 nM. The “average plasma drug concentration” value in [10] is 43 µM.

In the case of `C[C@@H](C(=O)O)c1ccc(-c2ccccc2)c(F)c1` [tarenflurbil], in data set [11], the clinical efficacy result was “not to be effective”.

The AUC(0-t) is the area under the concentration-time curve up to a stated or last time point.

Values taken from paper PMC4523931, “Modulation of Aβ42 in vivo by γ-secretase modulator in primates and humans” (Alzheimer's Research & Therapy, 2015).
